{"source": "patent US20240384268A1", "about": "“Oligonucleotides” (Hudson Institute of Medical Research, priority 2021, published 2024)", "note": "In the oligonucleotide strings, read from the 5' end, every base follows the letter of its sugar. An asterisk marks phosphorothioate; unmarked linkages are phosphodiester. Other units and linkages are bracketed, terminal groups are in braces. A string of capitals states the bases alone. d = 2'-deoxy (DNA); m = 2'-O-methyl"}
{"molecular_target": "T1, cGAS (Homo sapiens, UniProt Q8N884)", "T1 sequence (Q8N884 whole entry)": "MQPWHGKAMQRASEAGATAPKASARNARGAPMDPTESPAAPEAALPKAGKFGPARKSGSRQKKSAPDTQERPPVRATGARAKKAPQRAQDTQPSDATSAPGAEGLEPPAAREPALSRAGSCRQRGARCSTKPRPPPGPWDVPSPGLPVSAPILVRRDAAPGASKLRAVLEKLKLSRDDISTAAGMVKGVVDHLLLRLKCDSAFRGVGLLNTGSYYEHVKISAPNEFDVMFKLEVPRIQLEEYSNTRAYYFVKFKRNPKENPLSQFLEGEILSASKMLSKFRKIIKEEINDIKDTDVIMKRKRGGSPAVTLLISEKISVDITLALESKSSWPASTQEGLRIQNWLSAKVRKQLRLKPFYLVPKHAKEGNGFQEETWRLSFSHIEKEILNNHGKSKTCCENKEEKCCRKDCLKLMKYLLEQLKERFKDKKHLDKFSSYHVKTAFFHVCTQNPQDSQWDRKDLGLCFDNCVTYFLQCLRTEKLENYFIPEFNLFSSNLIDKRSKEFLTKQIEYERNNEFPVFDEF", "assay": "ISD70-driven IP-10 (and IFN-β) production in THP-1 cells, ELISA", "type": "cell-based", "set-up": "endogenous in cells; host or cells: THP-1 (undifferentiated)", "conditions": "MOE-modified ASO at 100 nM; averaged IP-10 levels relative to ISD70 condition"}
{"substance": "TCCGGCCTCGGAAGCTCTCT (antisense; 2'-MOE modified, pattern not given here) [MB21D1-168 MOE]", "cGAS 100 nM": 0.250}
{"substance": "CGGCATCCACCACGTCGTCC (antisense; 2'-MOE modified, pattern not given here) [EGFR-3267 MOE]", "cGAS 100 nM": 0.378}
{"molecular_target": "T1, cGAS", "assay": "ISD70-driven IP-10 (and IFN-β) production in THP-1 cells, ELISA", "type": "cell-based", "set-up": "endogenous in cells; host or cells: THP-1 (undifferentiated)", "conditions": "THP-1; 100 nM ASO overnight, then ISD70 2.5 μg/ml 7-8 h; percentage of ISD70 only", "units": {"cGAS-100 nM: averaged IP-10 levels relative to ISD70": "%"}}
{"substance": "mG*mA*mU*mG*mG*T*T*C*C*A*G*T*C*C*C*mU*mC*mU*mU*mC (GAUGGTTCCAGTCCCUCUUC; antisense; sugars from the 5' end m5 d10 m5, all phosphorothioate, methylation of C not given here) [[LINC-PINT]1497.1]", "cGAS-100 nM: averaged IP-10 levels relative to ISD70": 26.05}
{"substance": "mA*mA*mA*mG*mA*T*T*A*T*C*T*T*C*T*T*mU*mU*mA*mA*mU (mA*mA*mA*mG*mA*dT*dT*dA*dT*dC*dT*dT*dC*dT*dT*mU*mU*mA*mA*mU) [[CDKN2B-AS1]2132]", "cGAS-100 nM: averaged IP-10 levels relative to ISD70": 74.59}
{"substance": "mC*mC*mC*mU*mA*A*T*G*C*T*T*T*C*C*T*mC*mU*mC*mC*mA (mC*mC*mC*mU*mA*dA*dT*dG*dC*dT*dT*dT*dC*dC*dT*mC*mU*mC*mC*mA; antisense) [[LINC-PINT1877 KL]", "cGAS-100 nM: averaged IP-10 levels relative to ISD70": 89.09}
{"substance": "mU*mU*mA*mG*mC*T*C*C*T*T*G*C*C*T*C*mG*mU*mU*mC*mC (mU*mU*mA*mG*mC*dT*dC*dC*dT*dT*dG*dC*dC*dT*dC*mG*mU*mU*mC*mC; antisense) [[LINC-PINT] 1222]", "cGAS-100 nM: averaged IP-10 levels relative to ISD70": 63.80}
{"substance": "mG*mG*mA*mU*mU*A*A*A*A*C*A*G*A*T*T*mA*mA*mU*mA*mC (GGAUUAAAACAGATTAAUAC; sugars from the 5' end m5 d10 m5, all phosphorothioate, methylation of C not given here) [[CDKN2B-AS1]1774]", "cGAS-100 nM: averaged IP-10 levels relative to ISD70": 50.11}
{"substance": "mC*mA*mU*mC*mC*C*T*T*C*T*G*C*T*G*C*mC*mA*mA*mG*mC (mC*mA*mU*mC*mC*dC*dT*dT*dC*dT*dG*dC*dT*dG*dC*mC*mA*mA*mG*mC; antisense) [[LINC-PINT]98]", "cGAS-100 nM: averaged IP-10 levels relative to ISD70": 70.60}
{"substance": "mU*mG*mG*mC*mG*T*A*G*T*T*T*C*T*C*T*mU*mC*mC*mU*mC (mU*mG*mG*mC*mG*dT*dA*dG*dT*dT*dT*dC*dT*dC*dT*mU*mC*mC*mU*mC; antisense) [[LINC-PINT]937.1]", "cGAS-100 nM: averaged IP-10 levels relative to ISD70": 70.97}
{"substance": "mC*mC*mU*mU*mC*T*C*T*C*T*G*GT*C*C*mC*mA*mU*mC*mC (CCUUCTCTCTGGTCCCAUCC; antisense; chemistry not fully specified) [[LINC-PINT]113]", "cGAS-100 nM: averaged IP-10 levels relative to ISD70": 103.79}
{"substance": "mG*mU*mC*mU*mC*C*T*C*C*A*C*A*C*C*C*mU*mU*mC*mU*mC (mG*mU*mC*mU*mC*dC*dT*dC*dC*dA*dC*dA*dC*dC*dC*mU*mU*mC*mU*mC; antisense) [[LINC-PINT]126]", "cGAS-100 nM: averaged IP-10 levels relative to ISD70": 114.36}
{"substance": "mC*mU*mU*mU*mA*T*A*T*T*A*C*A*A*A*G*mC*mU*mA*mC*mU (mC*mU*mU*mU*mA*dT*dA*dT*dT*dA*dC*dA*dA*dA*dG*mC*mU*mA*mC*mU; antisense) [[LINC-PINT]2755]", "cGAS-100 nM: averaged IP-10 levels relative to ISD70": 92.54}
{"substance": "mA*mA*mA*mU*mG*T*C*C*T*G*G*C*C*C*T*mC*mA*mC*mU*mG (mA*mA*mA*mU*mG*dT*dC*dC*dT*dG*dG*dC*dC*dC*dT*mC*mA*mC*mU*mG) [[LINC-PINT]148.1]", "cGAS-100 nM: averaged IP-10 levels relative to ISD70": 66.46}
{"substance": "mA*mU*mG*mA*mC*A*T*T*T*C*G*T*G*G*C*mU*mC*mC*mU*mA (mA*mU*mG*mA*mC*dA*dT*dT*dT*dC*dG*dT*dG*dG*dC*mU*mC*mC*mU*mA) [[LINC-PINT]524.1]", "cGAS-100 nM: averaged IP-10 levels relative to ISD70": 99.38}
{"molecular_target": "T1, cGAS", "assay": "ISD70-driven IP-10 (and IFN-β) production in THP-1 cells, ELISA", "type": "cell-based", "set-up": "endogenous in cells; host or cells: THP-1 (undifferentiated)", "conditions": "THP-1; 2′OMe or PS oligos, 100-250 nM, pre-treatment as in figure legends; ISD70 2.5 μg/ml"}
{"substance": "mG*mA*mU*mG*mG*T*T*C*C*A*G*T*C*C*C*mU*mC*mU*mU*mC (GAUGGTTCCAGTCCCUCUUC; antisense; sugars from the 5' end m5 d10 m5, all phosphorothioate, methylation of C not given here) [[LINC-PINT]1497.1]", "inhibition of ISD70-driven IP-10 production (in words)": "significant effect"}
{"molecular_target": "T1, cGAS", "assay": "ISD70-driven IP-10 production in HT-29 cells, ELISA", "type": "cell-based", "set-up": "endogenous in cells", "conditions": "187.5 nM ASO overnight, ISD70 24 h", "units": {"reduction of ISD70-dependent IP-10 production": "%"}}
{"substance": "mG*mA*mU*mG*mG*T*T*C*C*A*G*T*C*C*C*mU*mC*mU*mU*mC (GAUGGTTCCAGTCCCUCUUC; antisense; sugars from the 5' end m5 d10 m5, all phosphorothioate, methylation of C not given here) [[LINC-PINT]1497.1]", "reduction of ISD70-dependent IP-10 production": 25}
